The results in this text go back to patent publication US20050222147A1, “Process for the preparation of morpholine derivatives and intermediates therefore” (priority 2000, published 2005).

The structures appear in SMILES notation. Where a name gives a salt, the structure may show the parent alone.

One experiment addresses T1, CCR-3 (Homo sapiens, UniProt P51677).
T1 construct: expressed in transfected cells
T1 sequence (P51677 1-355): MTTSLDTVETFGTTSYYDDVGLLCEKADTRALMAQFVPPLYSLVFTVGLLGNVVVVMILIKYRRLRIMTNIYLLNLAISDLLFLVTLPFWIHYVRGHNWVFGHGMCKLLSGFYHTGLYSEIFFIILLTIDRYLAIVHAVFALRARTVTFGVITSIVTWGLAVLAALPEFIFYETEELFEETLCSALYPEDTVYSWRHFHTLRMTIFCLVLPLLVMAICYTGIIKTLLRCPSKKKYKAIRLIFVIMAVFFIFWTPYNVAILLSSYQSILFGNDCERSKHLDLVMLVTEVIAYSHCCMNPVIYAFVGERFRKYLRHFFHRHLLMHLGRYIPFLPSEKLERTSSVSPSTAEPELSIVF
In words: CCR-3 competition binding SPA (scintillation proximity assay). The settings on record: read-out: CCR-3 Binding Assay (pIC50) (converted). The protocol: A CCR-3 competition binding SPA (scintillation proximity assay) was used to assess the affinity of novel compounds for CCR-3. Membranes prepared from K562 cells stably expressing CCR-3 (2.51 μg/well) were mixed with 0.25 mg/well wheat-germ agglutinin SPA beads (Amersham) and incubated in binding buffer (HEPES 50 mM, CaCl2 1 mM, MgCl2 5 mM, 0.5% BSA) at 4° C. for 1.5 hr. Following incubation, 20 pM of [^125I) eotaxin (Amersham) and increasing concentrations of compound (1 pM to 30 μM) were added and incubated in a 96 well plate for 2 hr at 22° C. then counted on a Microbeta plate counter. The total assay volume was 100 μl. Competition binding data were analysed by fitting the data with a four parameter logistic equation. Data are presented as the mean pIC50 values (negative logarithm of the concentration of compound which inhibits [^125I] eotaxin binding by 50%) from at least two experiments.
As for `O=C(Cc1cc(Cl)ccc1Cl)NCC1CN(Cc2ccc(Cl)c(Cl)c2)CCO1` (stereo not shown) [Example 13, N-{[4-(3,4-Dichlorobenzyl)morpholin-2-yl]methyl}-2-(2,5-dichlorophenyl)acetamide], the IC50 was 0.24 µM.

Take `O=C(Cc1ccco1)NCC1CN(Cc2ccc(Cl)c(Cl)c2)CCO1` (stereo not shown) [Example 38, N-{[4-(3,4-Dichlorobenzyl)morpholin-2-yl]methyl}-2-(2-furyl)acetamide]: the IC50 is 0.1 µM.

With `Cc1oc(-c2ccccc2)nc1CC(=O)NC[C@H]1CN(Cc2ccc(Cl)c(Cl)c2)CCO1` [Example 54, N-{[(2S)-4-(3,4-Dichlorobenzyl)morpholin-2-yl]methyl}-2-(5-methyl-2-phenyl-1,3-oxazol-4-yl)acetamide], the IC50 is 0.024 µM.

Turning to `O=C(Cc1cccc(Cl)c1)NCC1CN(Cc2ccc(Cl)c(Cl)c2)CCO1` (stereo not shown) [Example 8, 2-(3-Chlorophenyl)-N-{[4-(3,4-dichlorobenzyl)morpholin-2-yl]methyl}acetamide], the IC50 was 0.145 µM.

Turning to `Cc1cc(F)ccc1CC(=O)NCC1CN(Cc2ccc(Cl)c(Cl)c2)CCO1` (stereo not shown) [Example 19, N-{[4-(3,4-Dichlorobenzyl)morpholin-2-yl]methyl}-2-(4-fluoro-2-methylphenyl)acetamide], the IC50 was 0.832 µM.

For the molecule `CSc1ccc(CC(=O)NCC2CN(Cc3ccc(Cl)c(Cl)c3)CCO2)cc1` (stereo not shown) [Example 5, N-{[4-(3,4-Dichlorobenzyl)morpholin-2-yl]methyl}-2-[4-(methylthio)phenyl]acetamide], the IC50 is 0.0776 µM.

Regarding `Cc1oc(-c2ccccc2)nc1CC(=O)NC[C@@H]1CN(Cc2ccc(Cl)c(Cl)c2)CCO1` [Example 55, N-{[(2R)-4-(3,4-Dichlorobenzyl)morpholin-2-yl]methyl}-2-(5-methyl-2-phenyl-1,3-oxazol-4-yl)acetamide], the IC50 was 0.398 µM.

Take `COc1ccc2[nH]c(C)c(CC(=O)NCC3CN(Cc4ccc(Cl)c(Cl)c4)CCO3)c2c1` (stereo not shown) [Example 31, N-{[4-(3,4-Dichlorobenzyl)morpholin-2-yl]methyl}-2-(5-methoxy-2-methyl-1H-indol-3-yl)acetamide]: the IC50 is 0.513 µM.

`COc1ccc(CC(=O)NCC2CN(Cc3ccc(Cl)c(Cl)c3)CCO2)cc1` (stereo not shown) [Example 22, N-{[4-(3,4-Dichlorobenzyl)morpholin-2-yl]methyl}-2-(4-methoxyphenyl)acetamide]: the IC50 was 0.11 µM.

With `C[C@H]1CO[C@H](CNC(=O)Cc2ccccc2)CN1Cc1ccc(Cl)c(Cl)c1` (relative stereo) [Example 25, N-{[(trans)4-(3,4-Dichlorobenzyl)-5-methylmorpholin-2-yl]methyl}-2-phenylacetamide], the IC50 was 0.0603 µM.

On to `O=C(Cc1cccc(C(=O)NC2CC2)c1)NCC1CN(Cc2ccc(Cl)c(Cl)c2)CCO1` (stereo not shown) [Example 53, N-Cyclopropyl-3-[2-({[(3,4-dichlorobenzyl)morpolin-2-yl]methyl}amino)-2-oxoethyl]benzamide], for which the IC50 was 0.00407 µM.

Turning to `O=C(Cn1nnc(-c2ccccc2)n1)NC[C@H]1CN(Cc2ccc(Cl)c(Cl)c2)CCO1` [Example 44], the IC50 is 0.00676 µM.

For the molecule `CS(=O)(=O)Nc1ccc(CC(=O)NCC2CN(Cc3ccc(F)c(F)c3)CCO2)cc1` (stereo not shown) [Example 45], the IC50 was 0.0132 µM.

`CS(=O)(=O)Nc1ccc(CC(=O)NC[C@H]2CN(Cc3ccc(F)cc3)CCO2)cc1` [Example 46, N-{[(2S)-4-(4-Fluorobenzyl)morpholin-2-yl]methyl}-2-{4-[(methylsulfonyl)amino]phenyl}acetamide]: the IC50 is 0.0724 µM.

On to `CN(C)S(=O)(=O)c1ccc(CC(=O)NCC2CN(Cc3ccc(Cl)c(Cl)c3)CCO2)cc1` (stereo not shown) [Example 7, N-{[4-(3,4-Dichlorobenzyl)morpholin-2-yl]methyl}-2-{4-[(dimethylamino)sulfonyl]phenyl}acetamide salt with formic acid (1:1)], for which the IC50 is 0.0151 µM.

Take `O=C(Cc1ccc(C(F)(F)F)cc1)NCC1CN(Cc2ccc(Cl)c(Cl)c2)CCO1` (stereo not shown) [Example 14]: the IC50 is 0.339 µM.

Take `Cc1nn(CC(=O)NCC2CN(Cc3ccc(Cl)c(Cl)c3)CCO2)c(C)c1Br` (stereo not shown) [Example 35]: the IC50 was 0.155 µM.

In the case of `NC(=O)c1ccc(CC(=O)NCC2CN(Cc3ccc(Cl)c(Cl)c3)CCO2)cc1` (stereo not shown) [Example 10, 4-[2-({[4-(3,4Dichlorobenzyl)morpholin-2-yl]methyl}amino)-2-oxoethyl]benzamide], the IC50 is 0.158 µM.

Regarding `O=C(Cc1ccc(F)c(F)c1)NCC1CN(Cc2ccc(Cl)c(Cl)c2)CCO1` (stereo not shown) [Example 6, N-{[4-(3,4-Dichlorobenzyl)morpholin-2-yl]methyl}-2-(3,4-difluorophenyl)acetamide], the IC50 is 0.138 µM.

The target in the next experiment is eosinophil chemotaxis. In words: Eosinophil chemotaxis assay (eotaxin-induced). The class given is cell-based, human. The settings on record: functional pKi (fpKi). The protocol: (b) Eosinophil Chemotaxis Assay.
Compounds were evaluated for their inhibitory effect on eosinophil chemotaxis. Eosinophils were purified from human peripheral blood by standard CD16 cell depletion using a Miltenyi cell separation column and a magnetic Super Macs magnet as previously described (Motegi & Kita, 1998; J. Immunology. 161:4340-6). Cells were re-suspended in RPMI 1640/10% FCS solution and incubated with calcein-AM (Molecular Probes) at 37° C. for 30 mins. Following incubation, the eosinophils were centrifuged at 400 g for 5 min and re-suspended in RPMI/FCS at 2.2 million/ml. Cells. were then incubated in the presence of increasing concentration of compounds (1 pM to 30 μM) at 37° C. for 30 mins. For control responses cells were incubated with RPMI/FCS only. The agonist eotaxin (either a concentration response curve or for the functional inhibition curves an EC80 concentration) was added to the lower chamber of a 96 well chemotaxis plate (5 μm filter: Receptor Technologies). Eosinophils (50 μl of 2 million/ml cells) were added to the top chamber of the filter plate and incubated at 37° C. for 45 mins. Cells remaining on top of the chemotaxis filter were removed and the number of eosinophils which had migrated were quantified by reading the plate on a fluorescent plate reader. Inhibition curves for the effect of compounds on eosinophil chemotaxis were analysed by fitting the data with a four parameter logistic equation. Functional pK1 values (fpK1) were generated using the equation below (Lazareno & Birdsall, 1995. Br. J. Pharmacol 109: 1110-9). [formula] (c) Guinea-pig Ovalbumin Model
For the molecule `O=C(Cc1cc(C(F)(F)F)cc(C(F)(F)F)c1)NCC1CN(Cc2ccc(Cl)c(Cl)c2)CCO1` (stereo not shown) [Example 17, 2-[3,5-Bis(trifluoromethyl)phenyl]-N-{[4-(3,4-dichlorobenzyl)morpholin-2-yl]methyl}acetamide], the “CCR-3 Eosinophil Chemotaxis Assay (fpKi)” value was found to be 6.24.

Take `Cc1oc(-c2ccc(F)cc2)nc1CC(=O)NCC1CN(Cc2ccc(Cl)c(Cl)c2)CCO1` (stereo not shown) [Example 41, N-{[4-(3,4-Dichlorobenzyl)morpholin-2-yl]methyl}-2-[2-(4-fluorophenyl)-5-methyl-1,3-oxazol-4-yl]acetamide]: the “CCR-3 Eosinophil Chemotaxis Assay (fpKi)” value was 7.99.

Turning to `CS(=O)(=O)c1ccc(CC(=O)NC[C@H]2CN(Cc3ccc(Cl)c(Cl)c3)CCO2)cc1` (single isomer, unassigned) [Example 39], the “CCR-3 Eosinophil Chemotaxis Assay (fpKi)” value was 8.31.

In the case of `C[C@H]1CO[C@H](CNC(=O)Cc2ccc(Cl)cc2)CN1Cc1ccc(Cl)c(Cl)c1` (relative stereo) [Example 27, 2-(4-Chlorophenyl)-N-{[(trans)-4-(3,4-dichlorobenzyl)-5-methylmorpholin-2-yl]methyl}acetamide], the “CCR-3 Eosinophil Chemotaxis Assay (fpKi)” value came to 7.39.

With `Cc1oc(-c2ccccc2)nc1CC(=O)NC[C@H]1CN(Cc2ccc(Cl)c(Cl)c2)CCO1` [Example 54, N-{[(2S)-4-(3,4-Dichlorobenzyl)morpholin-2-yl]methyl}-2-(5-methyl-2-phenyl-1,3-oxazol-4-yl)acetamide], the “CCR-3 Eosinophil Chemotaxis Assay (fpKi)” value was 7.96.

Consider `CS(=O)(=O)Nc1cccc(CC(=O)NC[C@H]2CN(Cc3ccc(Cl)s3)CCO2)c1` [Example 49, N-({(2S)-4-[(5-Chlorothien-2-yl)methyl]morpholin-2-yl}methyl)-2-{3-[(methylsulfonyl)amino]phenyl]acetamide], for which the “CCR-3 Eosinophil Chemotaxis Assay (fpKi)” value was 8.07.

`CS(=O)(=O)c1ccc(CC(=O)NCC2CN(Cc3ccc(Cl)c(Cl)c3)CCO2)cc1.O=CO` (stereo not shown) [Example 2, N-{[4-(3,4-Dichlorobenzyl)morpholin-2-yl]methyl}-2-[4-(methylsulfonyl)phenyl]acetamide salt with formic acid (1:1)]: the “CCR-3 Eosinophil Chemotaxis Assay (fpKi)” value was 6.51.

As to `O=C(Cc1ccsc1)NCC1CN(Cc2ccc(Cl)c(Cl)c2)CCO1` (stereo not shown) [Example 32, N-{[4-(3,4-Dichlorobenzyl)morpholin-2-yl]methyl}-2-thien-3-ylacetamide], the “CCR-3 Eosinophil Chemotaxis Assay (fpKi)” value is reported as 7.32.

Consider `O=C(Cc1csc(-c2cnccn2)n1)NC[C@H]1CN(Cc2ccc(Cl)c(Cl)c2)CCO1` [Example 42, N-([(2S)-4-(3,4-Dichlorobenzyl)morpholin-2-yl]methyl}-2-(2-pyrazin-2-yl-1,3-thiazol-4-yl)acetamide], for which the “CCR-3 Eosinophil Chemotaxis Assay (fpKi)” value came out at 9.32.

`O=C(Cc1csc(-c2cnccn2)n1)NCC1CN(Cc2ccc(Cl)c(Cl)c2)CCO1` (stereo not shown) [Example 37, N-{[4-(3,4-Dichlorobenzyl)morpholin-2-yl]methyl}-2-(2-pyrazin-2-yl-1,3-thiazol-4-yi)acetamide]: the “CCR-3 Eosinophil Chemotaxis Assay (fpKi)” value is listed as 7.97.

Turning to `O=C(Cc1cccc(F)c1)NCC1CN(Cc2ccc(Cl)c(Cl)c2)CCO1` (stereo not shown) [Example 3, N-{[4-(3,4-Dichlorobenzyl)morpholin-2-yl]methyl}-2-(3-fluorophenyl)acetamide], the “CCR-3 Eosinophil Chemotaxis Assay (fpKi)” value worked out at 7.15.

For the molecule `CN(C)c1ccc(CC(=O)NCC2CN(Cc3ccc(Cl)c(Cl)c3)CCO2)cc1.O=CO` (stereo not shown) [Example 12, N-{[4-(3,4-Dichlorobenzyl)morpholin-2-yl]methyl}-2-[4-(dimethylamino)phenyl]acetamide salt with formic acid (1:1)], the “CCR-3 Eosinophil Chemotaxis Assay (fpKi)” value came to 6.82.
